Laboratory results as given in article PMC5835976, “Synthesis, gallium labelling and characterization of P04087, a functionalized phosphatidylserine-binding peptide” (EJNMMI Radiopharmacy and Chemistry, 2017).
Where no end group is shown, it is not given here.

Key:
[1] = Peptide stability in Hank's medium with 10% foetal calf serum; format: in vitro ADME; conditions: 37 °C; for Stability result: Hanks + 10% FCS, 2 h incubation, in darkness, triplicate, sampled at 0, 1 h, 2 h, TCA precipitation, LC/ES/MS; for Stability in Hanks media supplied or not with foetal calf serum: Hanks media with or without FCS, two hours
Procedure: A 100 μL solutions of R824 (PGDLSR), R825 (DAHSFS) and R826 (LIKKPF) in Hank’s medium and 10% FCS (foetal calf serum) were prepared and incubated (in triplicate) for 2 h at 37 °C and in complete darkness. At 0, 1 h and 2 h, 100 μL were sampled from each tube; 200 μL of 0.6 M trichloroacetic acid were added. The mixtures were then centrifuged at 20,000 g for 10 min at 4 °C. One microliter of each supernatant was then analyzed by LC/ES/MS.

[2] = compared with Ga-P04087; no reference given for the value; cited from earlier work
Procedure: Affinities of cold-labelled peptide (Ga-P04087) and the peptide of reference (R824) for phosphatidylserine were evaluated by enzyme-linked immunosorbent assay. A competitive binding assay procedure was performed: A 96-well plate (MICROLON plaque 200, med. Binding, F-bottom, GREINER) was coated with 200 μL/well of phosphatidylserine (PS) (Avanti Polar Lipids) (dissolved in ethanol (SIGMA ALDRICH) for a final concentration of 100 μg/mL).

vegetations = vegetations of experimental endocarditis; ref Rouzet et al. [2008]; cited from earlier work
Description: Otherwise, the presence of ^67Ga-P04087 uptake on autoradiography in contrast to the rapid degradation observed in vitro without the metalloprotease inhibitor, point out the discrepancies that could occur between in vitro and in vivo degradation even when low tracer amounts are used in vitro in order to avoid saturation of enzymes (García-Garayoa et al. [2001]). These positive autoradiography results extend the findings of histology experimentations on the binding of the agent to PS. However, comparatively to radiolabelled Annexin A5, the contrast was not sufficient to provide a detectable sig ...

[3] = format: in vitro ADME, human
Procedure: The metabolic stability was checked in human serum at 37 °C in presence and in absence of 1,10 phenanthroline monohydrate, a well-known metalloprotease inhibitor (Wijayanti et al. [2006]) at appropriate periods of time (0, 15, 30, 60 min). In two different tubes containing 200 μL of human serum plasma previously incubated at 37 °C was added 40 μL of ^67Ga-P04087 labelling solution. 4 μL of 1 mg/mL of 1,10 phenanthroline monohydrate in ethanol was added only in one of the two tubes. At 0, 15, 30 and 60 min, 20 μL aliquots were collected and proteins were precipitated with 200 μL of methanol. Samples were then filtered with 0.2 μm Whatman filter (13 mm) and the methanol was then evaporated with a stream of nitrogen. The resulting dry residue was dissolved in 200 μL water and then analyzed by C18-radio-HPLC using the equipment mentioned above.

[4] = tested on: phosphatidylserine in valve vegetations; assay: In vivo binding to PS in rat model of infective endocarditis (SPECT/CT, autoradiography); conditions: intravenous injection, intense signal in the bladder

Compound	Stability result [1]	Stability in Hanks media supplied or not with foetal calf serum [1]	other results
DAHSFS [Peptide R825]	Stable	stable	
99mTc-AnnexinV: technetium 99m-labelled Annexin V, protein imaging agent targeting PS			affinity to PS [2]: 6*10^−9 M; uptake ratio for autoradiography (vegetations): 2; uptake ratio for in vivo acquisitions (vegetations): 1.3
PGDLSR [Peptide R824]	Stable	stable	
CC(C)C[C@H](NC(=O)[C@H](CC(=O)O)NC(=O)CNC(=O)[C@@H]1CCCN1C(=O)CCNC(=O)CCC(C(=O)O)N1CCN(CC(=O)O)CCN(CC(=O)O)CC1)C(=O)N[C@@H](CO)C(=O)N[C@@H](CCCNC(=N)N)C(=O)O (some centres unmarked) [Peptide 67Ga-P04087, metal not drawn]			Radiochemical purity in human serum with 1,10 phenanthroline monohydrate [3]: 100%; Renal elimination on SPECT/CT [4]: rapid renal elimination
LIKKPF [Peptide R826]	Total degradation 1 h after the start of incubation	quickly degraded	
